pIC50: −log10 of the molar value.

These results are taken from patent US20100093777A1 (Takeda Pharmaceutical Company Limited, priority 2007, published 2010).

Data set [1] has as its target T1, Human ACC1 (Homo sapiens, UniProt Q13085).
T1 construct: His tag (from the pFAST-BacHTc vector); own knowledge: N-terminal 6xHis with TEV site; made in house; host or cells: SF-9 insect cells, recombinant baculovirus BAC-ACC1
Description: Measurement of ACC1 inhibitory activity (recombinant enzyme, malachite green absorbance). It is filed as biochemical. Particulars: recombinant human ACC1 8 μg/ml; 30° C.; 200 μM ATP, 200 μM Acetyl-CoA; absorbance 620 nm. The procedure:
The ACC1 inhibitory action of the compound of the present invention was evaluated by the following method.
Human ACC1 gene was cloned by PCR using a human liver cDNA library (Clontech) as a template and Primer 1 and Primer 2 shown below. Primer 1 and Primer 2 were prepared by adding SalI, NotI restriction enzyme recognition sequence based on the information of the base sequence (Genbank Accession U19822) of human ACC1 gene.
PCR was performed using a Pyrobest DNA polymerase (TAKARA BIO INC.) The obtained PCR product was cloned to pT7 Blue vector (Novagen) and, after confirmation of the base sequence, digested with restriction enzymes SalI and NotI. The obtained DNA fragment was inserted to pFAST-BacHTc (Invitrogen) digested with restriction enzymes SalI and NotI to give expression plasmid ACC1/pFAST-BacHTc.
Using the expression plasmid and BAC-TO-BAC Baculovirus Expression System (Invitrogen), virus stock BAC-ACC1 of recombinant Baculovirus was prepared.
SF-9 cells (Invitrogen) were inoculated to a medium (1 L) for insect cells (Sf-900IISFM medium (Invitrogen) containing 10% fetal bovine serum (Trace), 50 mg/L Gentamicin (Invitrogen) and 0.1% Pluronic F-68 (Invitrogen)) at 1×10^6 cells/mL, and cultured with shaking at 27° C., 100 rpm in a 2 L Erlenmeyer flask.
After 24 hr of the culture, recombinant Baculovirus BAC-ACC1 (10 mL) was added, and the cells were further cultured for 3 days. The culture medium was centrifuged at 1000×g for 5 min to give virus-infected cells. The cells were washed with phosphate buffered saline (Invitrogen), and centrifuged under the same conditions, and the obtained cells were cryopreserved at −80° C.
The cryopreserved cells were thawed in ice and suspended in 100 mL of 25 mM HEPES buffer (pH 7.5) containing 10% Glycerol, 0.13 M NaCl, 1 mM EDTA, 25 mM Sodium β-Glycerophosphate and 1 mM Sodium Orthovanadate, and supplemented with Complete Protease Inhibitor (Nippon Boehringer Ingelheim Co., Ltd.). The obtained suspension was homogenized 3 times in a polytron homogenizer (Kinematica) at 20,000 rpm for 30 sec. The obtained cell disruption solution was clarified by centrifugation at 185700×g for 50 min, and filtered through a 0.45 μm filter. The filtrate was passed through a column packed with 12 mL of Ni-NTA Super Flow Gel (QUIAGEN) at a flow rate of about 5 mL/min. The column was washed with buffer A (50 mM HEPES (pH 7.5) containing 0.3 M NaCl), further washed with buffer A containing 20 mM Imidazole, and eluted with buffer A containing 100 mM Imidazole. The eluate was concentrated with Vivaspin 20 (Vivascience) with a molecular weight cut off of 30K. The obtained concentrate was dialyzed against Sephadex G-25 (Amersham Biosciences, 358 ml) equilibrated with 50 mM HEPES (pH 7.5) containing 10 mM MgCl2, 2 mM Dithiothreitol, 10 mM Tripotassium Citrate and 0.3 M NaCl. The inner dialysate was concentrated with Vivaspin 20 (Vivascience) with a molecular weight cut off of 30K, and the concentrate was filtered through a 0.22 μm filter to give ACC1. The obtained ACC1 was cryopreserved at −80° C.
ACC1 (0.93 mg/ml) obtained in the above-mentioned (2) was diluted with an enzyme reaction buffer (50 mM HEPES (pH 7.5), 10 mM MgCl2, 10 mM Tripotassium Citrate, 2 mM Dithiothreitol, 0.75 mg/ml Fatty acid free BSA) to concentration of 8 μg/ml, and the mixture was added to each well of 384 well assay plate (Nunc 265196) by 10 μl.
Thereafter, ACC1 inhibitory rate (%) was measured in the same manner as in the below-mentioned Experimental Example 2-(3), and IC50 value was calculated.
ACC2 (Nd) (1.1 mg/ml) obtained in the above-mentioned (2) was diluted with an enzyme reaction buffer (50 mM HEPES (pH 7.5), 10 mM MgCl2, 10 mM Tripotassium Citrate, 2 mM Dithiothreitol, 0.75 mg/ml Fatty acid free BSA) to a concentration of 6.4 μg/ml, and the mixture was added to each well of a 384 well assay plate (Nunc 265196) by 10 μl. […]

Data set [2] concerns the target T2, Human ACC2 (Nd, N terminal deleted) (Homo sapiens, UniProt O00763).
T2 construct: His tag (from the pFAST-BacHTa vector); own knowledge: N-terminal 6xHis with TEV site; made in house; host or cells: SF-9 insect cells, recombinant baculovirus BAC-ACC2 (Nd)
Description: Measurement of ACC2 inhibitory activity (recombinant ACC2 (Nd), malachite green absorbance). It is filed as biochemical. Particulars: recombinant human ACC2 (Nd) 6.4 μg/ml; 30° C.; 200 μM ATP, 200 μM Acetyl-CoA; absorbance 620 nm. As for the experimental part:
The ACC2 inhibitory action of the compound of the present invention was evaluated by the following method.
Human ACC2 gene was cloned by PCR using a human skeletal muscle cDNA library (Clontech) as a template and Primer 1 and Primer 2 shown below. Primer 1 and Primer 2 were prepared by adding SalI, XbaI restriction enzyme recognition sequences based on the information of the base sequence (Genbank Accession U89344) of human ACC2 gene.
PCR was performed using Pyrobest DNA polymerase (TAKARA BIO INC.). The obtained PCR product was cloned to pT7 Blue vector (Novagen) and, after confirmation of the base sequence, digested with restriction enzymes SalI and XbaI. The obtained DNA fragment was inserted into pFAST-BacHTa (Invitrogen) digested with restriction enzymes SalI and XbaI to give expression plasmid ACC2/pFAST-BacHTa.
PCR was performed using the expression plasmid as a template and Primer 3 and Primer 4 shown below to prepare a plasmid to be used for expression of ACC2 free of mitochondrial targeting sequence.
PCR was performed using Pyrobest-DNA polymerase (TAKARA BIO INC.). The obtained PCR product was cloned to pT7 Blue vector (Novagen) and, after confirmation of the base sequence, digested with restriction enzymes SalI and AflII. The obtained DNA fragment was inserted into pFAST-BacHTa (Invitrogen) digested with restriction enzymes SalI and AflII to give expression plasmid ACC2mito7/pFAST-BacHTa.
Using the expression plasmid and BAC-TO-BAC Baculovirus Expression System (Invitrogen), virus stock BAC-ACC2 (N terminal deleted (hereinafter Nd)) of recombinant Baculovirus was prepared.
SF-9 cells (Invitrogen) were inoculated to a medium (2 L) for insect cells (Sf-900IISFM medium (Invitrogen) containing 10% fetal bovine serum (Trace), 50 mg/L Gentamicin (Invitrogen), 0.1% Pluronic F-68 (Invitrogen)) at 0.5×10^6 cells/mL, and cultured with shaking in Wave Bioreactor (Wave) at 27° C., 20 rpm, rocking angle […], oxygen concentration 30%.
On day 4 of the culture, 3 L of the medium for insect cells was added, the rocking angle was set to 8°, and the cells were cultured. On day 5 of the culture, 100 mL of recombinant Baculovirus BAC-ACC2 (Nd) was added, 5 L of the medium for insect cells was further added, the rocking angle was set to 11°, and the cells were cultured for 3 days. The culture medium was centrifuged at 1000×g for 10 min to give virus-infected cells. The cells were washed with phosphate buffered saline (Invitrogen) and centrifuged under the same conditions. The obtained cells were cryopreserved at −80° C.
The cryopreserved cells were thawed in ice and suspended in 900 mL of 25 mM HEPES buffer (pH 7.5) containing 10% Glycerol, 0.13 M NaCl, 1 mM EDTA, 25 mM Sodium βGlycerophosphate and 1 mM Sodium Orthovanadate, and supplemented with Complete Protease Inhibitor (Nippon Boehringer Ingelheim Co., Ltd.). The obtained suspension was homogenized 3 times in a polytron homogenizer (Kinematica) at 20,000 rpm for 30 sec. The obtained cell disruption solution was clarified by centrifugation at 31000×g for 60 min, and filtered through a 0.45 μm filter. The filtrate was passed through a column packed with 60 mL of Ni-NTA Super Flow Gel (QUIAGEN) at a flow rate of about 5 mL/min. The column was washed with buffer A (50 mM HEPES (pH 7.5) containing 0.3 M NaCl), further washed with buffer A containing 20 mM Imidazole, and eluted with buffer A containing 100 mM Imidazole. The eluate was concentrated with Vivaspin 20 (Vivascience) with a molecular weight cut off of 30K. The obtained concentrate was dialyzed against 50 mM HEPES (pH 7.5) containing 10 mM MgCl2, 2[…] Dithiothreitol, 10 mM Tripotassium Citrate and 0.3 M NaCl. The inner dialysate was filtered through a 0.22 μm filter to give ACC2 (Nd). The obtained ACC2 (Nd) was cryopreserved at −80° C.
A test compound was dissolved in dimethyl sulfoxide (DMSO) and the mixture was diluted with an enzyme reaction buffer and the resulting solution (5 μl) was added to each well.

T2 sequence (O00763 117-2458 limits assumed, stated change not applied): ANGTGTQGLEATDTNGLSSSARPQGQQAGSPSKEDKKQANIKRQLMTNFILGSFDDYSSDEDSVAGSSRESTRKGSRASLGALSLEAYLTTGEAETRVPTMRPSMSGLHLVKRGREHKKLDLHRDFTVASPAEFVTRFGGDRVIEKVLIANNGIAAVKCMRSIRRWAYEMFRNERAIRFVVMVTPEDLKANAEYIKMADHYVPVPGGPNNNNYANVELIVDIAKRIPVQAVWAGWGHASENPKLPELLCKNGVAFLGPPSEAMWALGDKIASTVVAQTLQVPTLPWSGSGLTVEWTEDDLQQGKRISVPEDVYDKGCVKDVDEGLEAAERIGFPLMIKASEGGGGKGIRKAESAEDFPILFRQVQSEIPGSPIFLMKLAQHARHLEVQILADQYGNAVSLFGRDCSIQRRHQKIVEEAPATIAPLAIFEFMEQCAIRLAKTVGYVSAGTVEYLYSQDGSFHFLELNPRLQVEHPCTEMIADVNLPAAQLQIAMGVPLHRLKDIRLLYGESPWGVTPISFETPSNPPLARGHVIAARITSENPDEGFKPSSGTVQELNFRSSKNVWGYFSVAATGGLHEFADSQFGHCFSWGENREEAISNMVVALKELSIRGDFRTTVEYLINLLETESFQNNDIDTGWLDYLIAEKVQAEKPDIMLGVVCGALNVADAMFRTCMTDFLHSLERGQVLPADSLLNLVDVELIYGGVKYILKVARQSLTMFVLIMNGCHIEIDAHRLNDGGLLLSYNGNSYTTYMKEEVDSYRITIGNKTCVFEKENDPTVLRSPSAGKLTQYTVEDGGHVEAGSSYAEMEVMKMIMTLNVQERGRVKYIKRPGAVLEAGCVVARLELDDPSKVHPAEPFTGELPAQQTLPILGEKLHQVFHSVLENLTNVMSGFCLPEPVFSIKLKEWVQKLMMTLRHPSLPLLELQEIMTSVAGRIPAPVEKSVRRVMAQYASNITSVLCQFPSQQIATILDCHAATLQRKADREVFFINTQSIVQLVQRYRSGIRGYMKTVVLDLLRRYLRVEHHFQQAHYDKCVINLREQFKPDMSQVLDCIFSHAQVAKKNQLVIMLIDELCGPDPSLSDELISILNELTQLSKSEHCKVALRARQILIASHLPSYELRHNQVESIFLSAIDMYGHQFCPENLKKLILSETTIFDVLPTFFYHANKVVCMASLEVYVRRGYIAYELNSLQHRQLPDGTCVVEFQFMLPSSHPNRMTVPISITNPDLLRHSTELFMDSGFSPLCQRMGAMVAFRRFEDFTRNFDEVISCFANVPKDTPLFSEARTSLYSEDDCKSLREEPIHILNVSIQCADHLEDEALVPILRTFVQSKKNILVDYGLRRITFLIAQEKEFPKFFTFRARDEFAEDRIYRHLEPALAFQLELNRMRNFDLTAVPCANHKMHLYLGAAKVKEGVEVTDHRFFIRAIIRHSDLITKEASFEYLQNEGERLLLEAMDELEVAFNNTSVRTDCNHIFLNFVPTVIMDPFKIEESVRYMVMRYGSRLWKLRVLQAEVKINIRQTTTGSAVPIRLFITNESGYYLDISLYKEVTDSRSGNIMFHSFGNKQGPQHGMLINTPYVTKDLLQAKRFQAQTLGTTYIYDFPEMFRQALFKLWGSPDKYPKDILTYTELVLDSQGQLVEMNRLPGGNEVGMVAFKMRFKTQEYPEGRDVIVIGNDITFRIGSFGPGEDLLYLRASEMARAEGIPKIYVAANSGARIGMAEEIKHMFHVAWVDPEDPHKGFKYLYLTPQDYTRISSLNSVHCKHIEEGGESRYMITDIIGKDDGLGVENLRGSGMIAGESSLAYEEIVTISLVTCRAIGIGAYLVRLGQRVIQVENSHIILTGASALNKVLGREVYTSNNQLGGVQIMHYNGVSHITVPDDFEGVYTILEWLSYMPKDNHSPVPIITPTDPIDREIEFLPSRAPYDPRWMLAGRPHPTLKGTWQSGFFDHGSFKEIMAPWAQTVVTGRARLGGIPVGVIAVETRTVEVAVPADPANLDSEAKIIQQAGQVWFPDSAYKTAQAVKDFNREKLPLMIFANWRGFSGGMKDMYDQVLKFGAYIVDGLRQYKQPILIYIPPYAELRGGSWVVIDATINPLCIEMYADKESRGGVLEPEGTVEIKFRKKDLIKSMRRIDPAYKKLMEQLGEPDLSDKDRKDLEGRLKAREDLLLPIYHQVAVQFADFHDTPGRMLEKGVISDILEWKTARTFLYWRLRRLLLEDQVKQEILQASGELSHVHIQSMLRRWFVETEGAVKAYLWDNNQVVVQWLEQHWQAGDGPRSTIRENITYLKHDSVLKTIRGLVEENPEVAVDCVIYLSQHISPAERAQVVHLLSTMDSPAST

Take `CCNC(=O)Nc1sc2nc(C)c(C)cc2c1C(=O)N1CCC(N2CCCC3(C2)N=C(C)N(C(C)C)C3=O)CC1` (stereo not shown) [Example 56]: the pIC50 (commonly the IC50 on a negative log10 scale, so that one unit is a factor of ten) is 7.00 to 8.00 in data set [1] and 8.00 to 9.00 in data set [2].

As to `CNC(=O)Nc1sc2nc(C)ccc2c1C(=O)N1CCC(N2CCCC3(CCN(C(C)C)C3=O)C2)CC1` (stereo not shown) [Example 64, N-(3-{[4-(2-isopropyl-1-oxo-2,7-diazaspiro[4.5]dec-7-yl)piperidin-1-yl]carbonyl}-6-methylthieno[2,3-b]pyridin-2-yl)-N′-methylurea], the melting point (in general, the temperature, or range, at which the solid turns liquid) fell in the range of 195 to 198 °C.

With `CNC(=O)Nc1sc2nc(C)ccc2c1C(=O)N1CCC(N2CCCC3(C2)CC(C)(C)OC3=O)CC1` (stereo not shown) [Example 78, N-(3-{[4-(3,3-dimethyl-1-oxo-2-oxa-7-azaspiro[4.5]dec-7-yl)piperidin-1-yl]carbonyl}-6-methylthieno[2,3-b]pyridin-2-yl)-N′-methylurea], the pIC50 was 7.00 to 8.00 in data set [1] and 8.00 to 9.00 in data set [2].

Consider `CCNC(=O)Nc1sc2nc(C)ccc2c1C(=O)N1CCC(N2CCCC3(C2)CC(C)(C)OC3=O)CC1` (stereo not shown) [Example 79, N-(3-{[4-(3,3-dimethyl-1-oxo-2-oxa-7-azaspiro[4.5]dec-7-yl)piperidin-1-yl]carbonyl}-6-methylthieno[2,3-b]pyridin-2-yl)-N′-ethylurea], for which the pIC50 was 7.00 to 8.00 in data set [1] and 8.00 to 9.00 in data set [2].
